For orientation: IC50 means the concentration that inhibits the measured activity by half. Low readings indicate greater potency, high ones weaker potency.

The text below walks through data of PMC4556431 (Angewandte Chemie (International ed. in English), 2015).

This assay has as its target Cif (CFTR inhibitory factor) (Pseudomonas aeruginosa, UniProt A0A0H2ZD27). The experiment in a line: epoxide hydrolase inhibition assay. It is filed as biochemical.

Where only a bound is given, the exact number is not on record here.

Chain of Cif (CFTR inhibitory factor) (A0A0H2ZD27 25-319 limits assumed): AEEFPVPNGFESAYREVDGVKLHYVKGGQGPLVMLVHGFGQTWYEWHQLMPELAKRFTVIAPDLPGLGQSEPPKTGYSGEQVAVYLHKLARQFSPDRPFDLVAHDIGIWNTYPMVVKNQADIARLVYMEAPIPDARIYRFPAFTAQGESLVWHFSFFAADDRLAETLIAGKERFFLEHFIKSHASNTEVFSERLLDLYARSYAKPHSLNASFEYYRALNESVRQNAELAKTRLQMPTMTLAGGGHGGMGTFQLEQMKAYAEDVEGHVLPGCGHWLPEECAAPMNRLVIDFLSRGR

In turn, `N[C@@H](Cc1cc(I)c(Oc2cc(I)c(O)c(I)c2)c(I)c1)C(=O)O` [compound 9, 9] yielded a half-inhibitory concentration (IC50) greater than 100 µM.
